In ChEMBL document CHEMBL1140333, “Structure-based design, synthesis, and biological evaluation of inhibitors of Mycobacterium tuberculosis type II dehydroquinase” (J Med Chem, 2005) one finds Ki data, which are given here for 14 molecules.

For this test, the target named is T1, 3-dehydroquinate dehydratase (Mycobacterium tuberculosis, UniProt P9WPX7).
T1 sequence (P9WPX7 whole entry): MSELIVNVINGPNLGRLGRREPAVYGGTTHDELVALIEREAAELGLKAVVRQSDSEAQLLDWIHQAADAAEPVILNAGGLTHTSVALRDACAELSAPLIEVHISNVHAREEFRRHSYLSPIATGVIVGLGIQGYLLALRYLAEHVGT
Briefly: Inhibition of Mycobacterium tuberculosis type II dehydroquinase at 25 degree C pH 8.2.

The structures appear in SMILES notation.

The Ki is the equilibrium dissociation constant of an inhibitor or competing ligand from its target. A lower Ki goes with tighter binding. Take `O=C(O)[C@]1(O)C=C(c2ccoc2)[C@@H](O)[C@H](O)C1`: the Ki amounted to 830 nM.
For `O=C(O)[C@]1(O)C=C(c2cccnc2)[C@@H](O)[C@H](O)C1` the value was 45000 nM; for `O=C(O)[C@]1(O)C=C(F)[C@@H](O)[C@H](O)C1`, 10000 nM; for `O=C(O)[C@]1(O)C=C(c2ccc(C(F)(F)F)cc2)[C@@H](O)[C@H](O)C1`, 17000 nM.
For `O=C(O)[C@]1(O)C=C(c2ccc(F)cc2)[C@@H](O)[C@H](O)C1` the value was 1800 nM.
In the case of `O=C(O)[C@]1(O)C=C(c2cccc(F)c2)[C@@H](O)[C@H](O)C1` it was 1500 nM.
Molecule `O=C(O)[C@]1(O)C=C(c2cccc(C(F)(F)F)c2)[C@@H](O)[C@H](O)C1` displayed an inhibitory constant (Ki) of 2120 nM.
Molecule `O=C(O)[C@]1(O)C=C(c2cccc(O)c2)[C@@H](O)[C@H](O)C1` came in with an inhibition constant Ki of 95000 nM. This Ki is about 45-fold higher than that of the molecule before.
For `O=C(O)[C@]1(O)C=C(c2cccc([N+](=O)[O-])c2)[C@@H](O)[C@H](O)C1` the value was 54 nM; for `O=C(O)[C@]1(O)C/C(=N\O)[C@@H](O)[C@H](O)C1`, 20000 nM; for `O=C(O)c1cccc(C2=C[C@@](O)(C(=O)O)C[C@@H](O)[C@@H]2O)c1`, 150000 nM.
In the case of `O=C(O)[C@]1(O)C=C(c2ccsc2)[C@@H](O)[C@H](O)C1` it was 590 nM; in that of `O=C(O)[C@]1(O)C=C(c2ccccc2)[C@@H](O)[C@H](O)C1`, 1500 nM.
For `O=C(O)[C@]1(O)C=C(c2cc(F)cc(F)c2)[C@@H](O)[C@H](O)C1` the value was 2440 nM.
